Data set [1] concerns MCF-7 breast cancer cells. The data set can be described thus: MTT antitumor assay, MCF-7. Format: cell-based. The conditions noted are these: Homo sapiens, MCF7, 48 h, read-out: IC50 (μM) ± SD MCF-7.
The next data set has as its system HT-29 colon cancer cells. In words: MTT antitumor assay, HT-29. Format: cell-based. The note with it: Homo sapiens, HT-29, 48 h, read-out: IC50 (μM) ± SD HT-29.
For the next data set, the system named is A-549 lung cancer cells. In words: MTT antitumor assay, A-549. Format: cell-based. The conditions noted are these: Homo sapiens, A549, 48 h, read-out: IC50 (μM) ± SD A-549.
The nature of data set [2]: MTT assay, normal fibroblast cell line HDF. The note with it: human, HDF normal fibroblast cells. Format: cell-based.
Another data set addresses EGFR tyrosine kinase (Homo sapiens, UniProt P00533). In words: EGFR Kinase Assay Kit / Kinase-Glo luminescence kinase assay. Format: biochemical.

EGFR tyrosine kinase, sequence (P00533 25-1210): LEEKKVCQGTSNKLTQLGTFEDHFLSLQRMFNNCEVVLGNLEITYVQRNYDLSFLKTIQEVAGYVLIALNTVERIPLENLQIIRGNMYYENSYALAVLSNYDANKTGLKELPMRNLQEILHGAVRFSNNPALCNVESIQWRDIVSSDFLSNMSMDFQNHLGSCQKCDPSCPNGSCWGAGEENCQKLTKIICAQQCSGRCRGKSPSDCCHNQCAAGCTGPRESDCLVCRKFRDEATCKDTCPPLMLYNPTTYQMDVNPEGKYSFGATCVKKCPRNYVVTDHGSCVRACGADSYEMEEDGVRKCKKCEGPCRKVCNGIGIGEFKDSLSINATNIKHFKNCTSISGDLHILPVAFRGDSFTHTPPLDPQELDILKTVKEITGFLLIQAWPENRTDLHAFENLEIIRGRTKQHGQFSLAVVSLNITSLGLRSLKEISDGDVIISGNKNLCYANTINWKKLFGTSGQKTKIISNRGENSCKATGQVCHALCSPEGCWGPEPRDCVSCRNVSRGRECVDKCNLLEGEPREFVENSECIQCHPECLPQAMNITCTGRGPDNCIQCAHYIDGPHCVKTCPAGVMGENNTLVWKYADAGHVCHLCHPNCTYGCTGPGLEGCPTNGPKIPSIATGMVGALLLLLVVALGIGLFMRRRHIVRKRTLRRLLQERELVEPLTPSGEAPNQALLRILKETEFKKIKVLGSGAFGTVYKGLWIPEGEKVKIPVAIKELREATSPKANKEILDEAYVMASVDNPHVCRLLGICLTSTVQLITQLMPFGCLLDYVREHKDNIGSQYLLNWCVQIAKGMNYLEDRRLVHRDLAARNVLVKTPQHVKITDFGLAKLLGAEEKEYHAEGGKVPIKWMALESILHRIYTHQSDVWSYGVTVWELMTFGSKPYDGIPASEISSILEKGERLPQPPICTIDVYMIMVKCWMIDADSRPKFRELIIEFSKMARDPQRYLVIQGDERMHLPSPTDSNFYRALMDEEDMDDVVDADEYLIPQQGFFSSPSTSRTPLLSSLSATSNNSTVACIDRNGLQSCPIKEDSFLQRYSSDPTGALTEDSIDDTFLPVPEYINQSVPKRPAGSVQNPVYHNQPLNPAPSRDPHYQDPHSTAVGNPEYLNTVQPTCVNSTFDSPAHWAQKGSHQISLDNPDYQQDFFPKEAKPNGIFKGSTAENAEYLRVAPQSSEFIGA

For the molecule `Nc1nc(Nc2ccccc2)c2cc(NCc3ccccc3)ccc2n1` [10a, N^6-benzyl-N^4-phenylquinazoline-2,4,6-triamine], the IC50 (in data set [1]; with HT-29 colon cancer cells; in the data set with A-549 lung cancer cells) was no less than 100 µM throughout. Further, the IC50 at 48 h in data set [2] was no less than 100 µM.
`Cc1ccc(CNc2ccc3nc(N)nc(Nc4ccccc4)c3c2)cc1` [10d, N^6-(4-methylbenzyl)-N^4-phenylquinazoline-2,4,6-triamine]: the IC50 was no less than 100 µM in data set [1], no less than 100 µM with HT-29 colon cancer cells, 0.126 ± 0.019 µM in the data set on A-549 lung cancer cells and 45.5 µM against EGFR tyrosine kinase. Also, in data set [2], the half-maximal inhibitory concentration (IC50) at 48 h is no less than 100 µM.
For the molecule `COc1ccc(CNc2ccc3nc(N)nc(Nc4ccccc4)c3c2)cc1` [10e, N^6-(4-methoxybenzyl)-N^4-phenylquinazoline-2,4,6-triamine], the IC50 in data set [1] was found to be 63.5 ± 1.39 µM; with HT-29 colon cancer cells, 13.5 ± 1.89 µM; in the data set on A-549 lung cancer cells, 15 ± 0.9 µM; against EGFR tyrosine kinase it was 3.53 µM. Besides, the half-inhibitory concentration (IC50) at 48 h in data set [2] is no less than 100 µM.
For the molecule `Cc1ccc(Nc2nc(N)nc3ccc(NCc4ccccc4)cc23)cc1` [10g, N^6-benzyl-N^4-p-methylphenyl quinazoline-2,4,6-triamine], the IC50 (in data set [1]; in the data set with HT-29 colon cancer cells; in the data set with A-549 lung cancer cells) was no less than 100 µM in each case. Moreover, the IC50 at 48 h in data set [2] is no less than 100 µM.
Consider `COc1ccc(Nc2nc(N)nc3ccc(NCc4ccccc4)cc23)cc1` [10h, N^6-benzyl-N^4-(4-methoxyphenyl) quinazoline-2,4,6-triamine], for which the IC50 (in data set [1]; in the data set on HT-29 colon cancer cells; in the data set with A-549 lung cancer cells) was no less than 100 µM each time. The same molecule gave an IC50 at 48 h in data set [2] of no less than 100 µM.
Regarding `Nc1nc(Nc2ccc(F)cc2)c2cc(NCc3ccccc3)ccc2n1` [10l, N^6-benzyl-N^4-(4-fluorophenyl) quinazoline-2,4,6-triamine], the IC50 (in data set [1]; in the data set with HT-29 colon cancer cells; in the data set with A-549 lung cancer cells) was no less than 100 µM each time. The half-inhibitory concentration (IC50) at 48 h in data set [2] is no less than 100 µM.
As for `Cc1ccc(C(=O)Nc2ccc3nc(N)nc(Nc4ccccc4)c3c2)cc1` [10n, N-(2-amino-4-(phenylamino)quinazolin-6-yl)-4-methylbenzamide], the IC50 (in data set [1]; with HT-29 colon cancer cells; in the data set on A-549 lung cancer cells) was no less than 100 µM each time. The half-inhibitory concentration (IC50) at 48 h in data set [2] was no less than 100 µM.
In the case of `Nc1nc(Nc2ccccc2)c2cc(NC(=O)c3ccc(F)cc3)ccc2n1` [10p, N-(2-amino-4-(phenylamino)quinazolin-6-yl)-4-fluorobenzamide], the IC50 (in data set [1]; in the data set on HT-29 colon cancer cells; with A-549 lung cancer cells) was no less than 100 µM in each case. Moreover, the IC50 at 48 h in data set [2] was no less than 100 µM.
With `COc1cccc2c1C(=O)c1c(O)c3c(c(O)c1C2=O)C[C@@](O)(C(=O)CO)C[C@@H]3O[C@H]1C[C@H](N)[C@H](O)[C@H](C)O1` [Doxorubicin, reference compound], the values for the IC50 (in data set [1]; with HT-29 colon cancer cells; in the data set with A-549 lung cancer cells) were 4.07 ± 0.38 µM, 56.3 ± 0.9 µM and 4.3 ± 0.3 µM, respectively. Moreover, the IC50 at 48 h in data set [2] is no less than 100 µM.
The like results for `C#Cc1cccc(Nc2ncnc3cc(OCCOC)c(OCCOC)cc23)c1` [Erlotinib, reference compound] were, in that order, 18.2 ± 2.6 µM, 28.1 ± 0.69 µM, 73.3 ± 1.5 µM and no less than 100 µM.

The values above are taken from PMC10008000 (Iranian Journal of Pharmaceutical Research : IJPR, 2023).
